A short description of the experiment: T3 promoter assay cell test (luciferase reporter under a thyroid hormone-regulated promoter). Type of experiment: cell-based. As to conditions: Homo sapiens; HepG2 luciferase reporter; costimulator retinolic acid; incubation 48 or 72 hours; four replicates. The protocol: The efficacy of the compounds according to the invention can be tested, for example, in vitro by the T3 promoter assay cell test described below:
The test is carried out using a stably transfected, human HepG2 hepatocarcinoma cell which expresses a luciferase gene under the control of a thyroid hormone-regulated promoter. The vector used for the transfection carries a minimal thymidine kinase promoter ahead of the luciferase gene having a thyroid hormone-responsive element (TRE) which consists of two inverted palindromes of 12 bp each and one 8 bp spacer.
For the test, the cell cultures are inoculated into 96 well plates in Eagle's Minimal Essential Medium with the following additives: glutamine, tricine [N-(tris-(hydroxymethyl)-methyl)-glycine], sodium pyruvate, non-essential amino acids (L-Ala, L-Asn, L-Asp, L-Pro, L-Ser, L-Glu, Gly), insulin, selenium and transferrin. The cultures are grown at 37° C. and under a 10% CO2 atmosphere for 48 hours. Serial dilutions of test substance or reference compound (T3, T4) and costimulator retinolic acid are then added to the test cultures and these are incubated for a further 48 or 72 hours as beforehand. Each substance concentration is tested in four replicates. For the determination of the luciferase induced by T3 or other substances, the cells are then lysed by addition of a Triton- and […] buffer (Promega) and immediately measured luminometrically. The EC50 values of each compound are calculated.

A word on the EC50: it is the concentration at which the effect is half-maximal. For `CCCc1n[nH]c2ccc(Oc3c(C)cc(N)cc3C)cc12` [Example 4, 5-(4-Amino-2,6-dimethylphenoxy)-3-propyl-1H-indazole], the EC50 came out at 115 nM. This lies in the sub-micromolar range.

Consider `CCOC(=O)C(=O)Nc1cc(C)c(Oc2ccc3[nH]nc(C(C)C)c3c2)c(C)c1` [Example 9, Ethyl ({3,5-dimethyl-4-[(3-isopropyl-1H-indazol-5-yl)oxy]phenyl}amino)(oxo)-acetate], for which a half-maximal effect (EC50) was put at 190 nM.

For the compound `CCCCCc1n[nH]c2ccc(Oc3c(C)cc(NC(=O)C(=O)OCC)cc3C)cc12` [Example 11, Ethyl ({3,5-dimethyl-4-[(3-pentyl-1H-indazol-5-yl)oxy]phenyl}amino)(oxo)acetate], a half-maximal effect (EC50) was put at 10 nM.

In the case of `CCCCCc1n[nH]c2ccc(Oc3c(C)cc(NC(=O)C(=O)O)cc3C)cc12` [Example 11a, ({3,5-dimethyl-4-[(3-pentyl-1H-indazol-5-yl)oxy]phenyl}amino)(oxo)acetic acid], the EC50 came to 13 nM. This EC50 and that of the compound before are within 1.5-fold of each other.

Take `CCCCCc1n[nH]c2ccc(Oc3c(C)cc(NCC(=O)OCC)cc3C)cc12` [Example 16, Ethyl ({3,5-dimethyl-4-[(3-pentyl-1H-indazol-5-yl)oxy]phenyl}amino)acetate]: the half-maximal effective concentration (EC50) was 10 nM.

With `CCCCCc1n[nH]c2ccc(Oc3c(C)cc(NC(=O)CC(=O)OC)cc3C)cc12` [Example 18, Methyl-({3,5-dimethyl-4-[(3-pentyl-1H-indazol-5-yl)oxy]phenyl}amino)-3-(oxo)-propionate], the concentration for a half-maximal effect (EC50) stood at 18 nM.
